Measurements taken from PMC3355380, “Back to the Future: Lessons Learned in Modern Target-based and Whole-Cell Lead Optimization of Antimalarials” (Current Topics in Medicinal Chemistry, 2012).
Converted amounts (≈) assume the structure as drawn. Where two headings read alike, the source gives them in different places.

How the values were obtained:
Plasmodium berghei = test: P. berghei murine model; format: in vivo; settings: for Activity (%): average parasitemia reduction; for Cure Rate (%): cure was no parasites at day 30; for parasitemia reduction: at all dosing regimens
[1] = cytotoxicity on CHO cells; format: cell-based; settings: Chinese hamster
[2] = cytotoxicity on HeLa cells; format: cell-based; settings: human
recombinant PfCDPK1 = recombinant PfCDPK1 (Plasmodium falciparum, UniProt P62344); test: PfCDPK1 enzyme inhibition; format: biochemical
Sequence of recombinant PfCDPK1 (P62344 whole entry): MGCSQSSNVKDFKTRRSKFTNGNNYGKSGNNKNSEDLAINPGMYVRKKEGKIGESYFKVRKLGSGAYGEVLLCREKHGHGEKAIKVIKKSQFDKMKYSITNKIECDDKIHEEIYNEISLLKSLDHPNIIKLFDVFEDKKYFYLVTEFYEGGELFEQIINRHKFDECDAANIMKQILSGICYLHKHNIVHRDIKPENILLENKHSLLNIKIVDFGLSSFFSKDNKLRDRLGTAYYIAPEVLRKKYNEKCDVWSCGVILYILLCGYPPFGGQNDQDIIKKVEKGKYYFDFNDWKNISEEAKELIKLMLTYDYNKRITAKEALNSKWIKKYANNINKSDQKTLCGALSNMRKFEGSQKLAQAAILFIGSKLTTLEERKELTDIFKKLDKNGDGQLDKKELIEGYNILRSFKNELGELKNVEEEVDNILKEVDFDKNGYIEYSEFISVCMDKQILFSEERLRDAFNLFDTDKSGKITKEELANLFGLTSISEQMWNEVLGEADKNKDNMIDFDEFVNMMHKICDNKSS
Source text: In P. falciparum, calcium-dependent protein kinase 1 (PfCDPK1) is expressed during schizogony in the blood and sporozoite stages and is ultimately required for parasite invasion of host cells, parasite motility, and potentially cytokinesis. We identified a series of purine-based, ATP competitive kinase inhibitors from a target-based screen of approximately 20,000 compounds on recombinant PfCDPK1 [9]. Of the most promising hits, the 2,6,9-trisubstitutes purines made up the largest class of compounds coming out of the screen and were therefore chosen as a lead series for chemical optimization.

[3] = cytotoxicity on HEp2 cells; format: cell-based; settings: human
P. falciparum 3D7 = P. falciparum 3D7 proliferation assay; format: cell-based, Plasmodium falciparum; settings: for EC50: Plasmodium falciparum, 3D7
Source text: (§1) We screened both our in-house compound collection (~2.3M compounds) and natural products library (12,000 compounds) using a cell based Plasmodium falciparum proliferation assay. This screen provided data on a large number of chemically diverse anti-malarial compounds. These nearly 5700 hits have been deposited into the public EBI database by GNF/Novartis. A number of these hits originated from kinase-directed libraries and many of which are pan-kinase inhibitors. De-convoluting and eliminating inherent kinase activity with many of these scaffolds while maintaining cellular potency was the first step in the hit-to-lead phase for these particular chemotypes. What follows is a summary of the chemical optimization of some kinase-like and non-kinase scaffolds which came out of the whole-cell screening effort.

[4] = cytotoxicity on Huh7 cells; settings: human, Huh7 cells
P. falciparum W2 = P. falciparum W2 proliferation assay; format: cell-based; settings: Plasmodium falciparum, mean of two experiments
Source text: as §1

[5] = test system: fifteen P. falciparum strains; test: panel of fifteen P. falciparum wild type and drug resistant strains; format: cell-based; settings: Plasmodium falciparum, read-out: in vitro EC50s across fifteen P. falciparum strains
40 mammalian kinases = test: panel of 40 mammalian kinases; format: biochemical
aqueous solubility = format: physicochemical; settings: aqueous medium, pH 6.8, aqueous buffer
190 kinases = test: human kinase profile on 190 kinases, biochemical and cellular formats; settings: biochemical and cellular assay formats
Huh7 = test: cytotoxicity on Huh7 cells; settings: mean of two experiments
[6] = test system: chloroquine-resistant K1 P. falciparum strain; set-up: method as in PMID 20813948; settings: Fig. 4; cited from earlier work
P. falciparum NF54 [7] = test system: P. falciparum NF54; set-up: method as in PMID 20813948; settings: Fig. 4; cited from earlier work
[8] = metabolic stability in human liver microsomes; format: in vitro ADME; settings: for half-life: human, liver microsomes, read-out: Liver Microsomes t1/2 (min), Human; for Liver Microsomes CLint, Human: intrinsic clearance, high clearance corresponds to low stability
P. falciparum NF54 [9] = test: P. falciparum NF54 in vitro potency; format: cell-based; settings: Plasmodium falciparum, spiroindolones, Tables 8 and 9
[10] = metabolic stability in mouse liver microsomes; format: in vitro ADME; settings: for Liver Microsomes CLint, Mouse: intrinsic clearance, high clearance corresponds to low stability; for half-life: mouse, liver microsomes, read-out: Liver Microsomes t1/2 (min), Mouse
[11] = target: QM-PfDHFR (quadruple mutant PfDHFR); set-up: method as in PMID 20350951; settings: cited from earlier work
[12] = target: WT-PfDHFR (wild type PfDHFR); set-up: method as in PMID 20350951; settings: cited from earlier work
[13] = 1 x 30 mg/kg, 7% Tween 80/3% ethanol (20: 75% PEG300/25%D5W)
[14] = 1 x 30 mg/kg, untreated mice 6-7 days
[15] = 1 x 100 mg/kg, untreated mice 6-7 days
[16] = 3 x 30 mg/kg, untreated mice 6-7 days
[17] = purines, mean of two experiments, read-out: P. falciparum 3D7 EC50
[18] = mean of two experiments, read-out: PfCDPK1 IC50
[19] = piperidyl benzamides, mean of two experiments, read-out: P. falciparum 3D7 EC50
[20] = imidazolopyrimidines, Fig. 2, read-out: 3D7 EC50
[21] = imidazolopiperazine hits, mean of two experiments, read-out: P. falciparum 3D7 EC50

C[C@H]1[C@H](OC(=O)CCC(=O)O)O[C@@H]2O[C@@]3(C)CC[C@H]4[C@H](C)CC[C@@H]1[C@@]24OO3 [AS, artesunate, reference compound]
Activity (%) (Plasmodium berghei; [13]): 89% | Activity (%) (Plasmodium berghei; 1 x 30 mg/kg, 10% ethanol, 30% PEG400, 6% vitamin E TPGS (30: 0.5% MCM / 0.1% Solutol HS15)): 92.2% | Cure Rate (%) (Plasmodium berghei; 1 x 30 mg/kg): 0% | Survival (Plasmodium berghei; [14]): 7.2 days | Survival (Plasmodium berghei; 1 x 30 mg/kg, untreated mice 6-7 days, Table 10): 7.3 days | Activity (%) (Plasmodium berghei; 1 x 100 mg/kg): 97% | Survival (Plasmodium berghei; [15]): 6.7 days | Survival (Plasmodium berghei; 3 x 30 mg/kg, 30 day experiment, Table 10): 11.8 days | Activity (%) (Plasmodium berghei; 3 x 30 mg/kg): 98% | Activity (%) (Plasmodium berghei; 3 x 30 mg/kg, Table 10): 99.0% | Cure Rate (%) (Plasmodium berghei; 3 x 30 mg/kg): 0% | Survival (Plasmodium berghei; [16]): 7.2 days

N[C@H]1CC[C@H](Nc2nc(Nc3ccc(C(=O)N4CCCCC4)cc3)c3ncn(-c4cccc(F)c4)c3n2)CC1 [Compound 2, purfalcamine]
EC50 [1]: 12300 nM | EC50 [2]: 7000 nM | IC50 (recombinant PfCDPK1): 17 nM | improvement in enzyme potency (2 vs. 3) (recombinant PfCDPK1; compound 2 versus compound 3): greater than 200 fold | EC50 [3]: 7200 nM | EC50 (P. falciparum 3D7; [17]): 230 nM | EC50 [4]: 5500 nM

N[C@H]1CC[C@H](Nc2nc(Nc3ccc(C(=O)N4CCCCC4)cc3)c3ncn(-c4ccc(OCc5ccccc5)cc4)c3n2)CC1 [Compound 3]
IC50 (recombinant PfCDPK1; [18]): 4040 nM | EC50 (P. falciparum 3D7; [17]): 312 nM

N[C@H]1CC[C@H](Nc2nc(Nc3ccc(C(=O)N4CCCCC4)cc3)c3ncn(-c4ccc5c(c4)OCO5)c3n2)CC1 [Compound 4]
IC50 (recombinant PfCDPK1; [18]): 342 nM | EC50 (P. falciparum 3D7; [17]): 400 nM

CCOc1ccc(-n2cnc3c(Nc4ccc(C(=O)N5CCCCC5)cc4)nc(N[C@H]4CC[C@H](N)CC4)nc32)cc1 [Compound 5]
IC50 (recombinant PfCDPK1): 240 nM | EC50 (P. falciparum 3D7; [17]): 535 nM

N[C@H]1CC[C@H](Nc2nc(Nc3ccc(C(=O)N4CCCCC4)cc3)c3ncn(-c4cccc(C(=O)O)c4)c3n2)CC1 [Compound 6]
IC50 (recombinant PfCDPK1; [18]): 71 nM | EC50 (P. falciparum 3D7; [17]): > 10000 nM

N[C@H]1CC[C@H](Nc2nc(Nc3ccc(C(=O)N4CCCCC4)cc3)c3ncn(-c4ccc(C(=O)O)cc4)c3n2)CC1 [Compound 7]
IC50 (recombinant PfCDPK1; [18]): 28 nM | EC50 (P. falciparum 3D7; [17]): > 10000 nM

O=C(Nc1cccc(Cl)c1)c1cc(N2CCC(N3CCCC3)CC2)cc(C(F)(F)F)c1 [Compound 11]
EC50 (P. falciparum 3D7; [19]): 134 ± 56 nM | EC50 (P. falciparum W2; piperidyl benzamides): 888 ± 112 nM

O=C(Nc1cccc(Cl)c1)c1cc(N2CCC(N3CCCCC3)CC2)cc(C(F)(F)F)c1 [Compound 12]
EC50 (P. falciparum 3D7; [19]): 97 ± 18 nM | EC50 (P. falciparum W2; piperidyl benzamides): 276 ± 14 nM

O=C(Nc1cccc(C(F)(F)F)c1)c1cc(N2CCC(N3CCCCC3)CC2)cc(C(F)(F)F)c1 [Compound 13]
EC50 (P. falciparum 3D7; [19]): 149 nM | EC50 (P. falciparum W2; piperidyl benzamides): 299 nM

CC1CCN(C2CCN(c3cc(C(=O)Nc4cccc(Cl)c4)cc(C(F)(F)F)c3)CC2)CC1 [Compound 14]
EC50 (P. falciparum 3D7; [19]): 140 nM | EC50 (P. falciparum W2; piperidyl benzamides): 323 nM | EC50 [5]: 100 to 300 nM

CC1CCCN(C2CCN(c3cc(C(=O)Nc4cccc(C(F)(F)F)c4)cc(C(F)(F)F)c3)CC2)C1 (stereo not drawn) [Compound 15]
EC50 (P. falciparum 3D7; [19]): 58 nM | EC50 (P. falciparum W2; piperidyl benzamides): 211 nM

FC(F)(F)Oc1ccc(Nc2cc(Nc3nccn3-c3cccc(C(F)(F)F)c3)ncn2)cc1 [Compound 16]
EC50 (P. falciparum 3D7; [20]): 420 nM | activity against a panel of 40 mammalian kinases (40 mammalian kinases): did not exhibit significant activity | solubility (aqueous solubility): 36 µM (≈ 17.3 µg/mL)

CN1CCN(c2nc(Nc3ccc(OC(F)(F)F)cc3)cc(Nc3nccn3-c3cccc(C(F)(F)F)c3)n2)CC1 [Compound 17]
human kinase profile on 190 kinases (190 kinases): clean human kinase profile | improvement in potency over the hit compound (P. falciparum 3D7; 17 versus 16): greater than 10 fold | EC50 (P. falciparum 3D7; [20]): 34 nM | EC50 [5]: < 140 nM

NC(Cc1ccccc1)C(=O)N1CCn2c(nc(-c3ccccc3)c2Nc2ccc3c(c2)OCO3)C1 (stereo not drawn) [Compound 18b]
EC50 (P. falciparum 3D7; [21]): 235 nM | Cytotoxicity (µM) Huh7 (Huh7): > 10 µM | EC50 (P. falciparum W2; imidazolopiperazine hits): 271 nM

CC(C)CC(N)C(=O)N1CCn2c(nc(-c3ccccc3)c2Nc2ccc3c(c2)OCO3)C1 (stereo not drawn) [Compound 18c]
EC50 (P. falciparum 3D7; [21]): 116 nM | Cytotoxicity (µM) Huh7 (Huh7): > 10 µM | EC50 (P. falciparum W2; imidazolopiperazine hits): 119 nM

CC(C)(N)C(=O)N1CCn2c(nc(-c3ccc(F)cc3)c2Nc2ccc(F)cc2)C1 [Compound 19]
Activity (%) (Plasmodium berghei; [13]): 99.3% | Survival (Plasmodium berghei; [14]): 7.7 days | Activity (%) (Plasmodium berghei; 1 x 100 mg/kg): 99.6% | Survival (Plasmodium berghei; [15]): 13.3 days | Activity (%) (Plasmodium berghei; 3 x 30 mg/kg): 99.9% | Survival (Plasmodium berghei; [16]): 14.0 days | parasitemia reduction (Plasmodium berghei): more than 99%

CC(C)(N)C(=O)N1CCn2c(nc(-c3ccc(F)cc3)c2Nc2ccc(F)c(Cl)c2)C1 [Compound 20]
Activity (%) (Plasmodium berghei; [13]): 99.4% | Survival (Plasmodium berghei; [14]): 7.7 days | Activity (%) (Plasmodium berghei; 1 x 100 mg/kg): 99.4% | Survival (Plasmodium berghei; [15]): 17.0 days | Activity (%) (Plasmodium berghei; 3 x 30 mg/kg): 99.8% | Survival (Plasmodium berghei; [16]): 17.7 days | parasitemia reduction (Plasmodium berghei): more than 99%

C[C@H]1CCc2c([nH]c3ccccc23)[C@@]2(N1)C(=O)Nc1ccc(Br)cc12 [Compound 22]
EC50 [6]: 16 nM | EC50 (P. falciparum NF54 [7]): 10 nM

C[C@@H]1CCc2c([nH]c3ccccc23)[C@]2(N1)C(=O)Nc1ccc(Br)cc12 [Compound 23]
EC50 [6]: > 3000 nM | EC50 (P. falciparum NF54 [7]): > 5000 nM

C[C@H]1Cc2c([nH]c3ccc(F)cc23)[C@@]2(N1)C(=O)Nc1ccc(Cl)cc12 [Compound 27]
half-life [8]: 10 min | Liver Microsomes CLint, Human [8]: Med | EC50 (P. falciparum NF54 [9]): 3.4 nM | Liver Microsomes CLint, Mouse [10]: High | half-life [10]: 4.2 min

C[C@H]1Cc2c([nH]c3cc(F)ccc23)[C@@]2(N1)C(=O)Nc1ccc(Cl)cc12 [Compound 28]
half-life [8]: 53.3 min | Liver Microsomes CLint, Human [8]: Low | EC50 (P. falciparum NF54 [9]): 3.5 nM | Liver Microsomes CLint, Mouse [10]: Low | half-life [10]: 53 min

C[C@H]1Cc2c([nH]c3cc(F)c(F)cc23)[C@@]2(N1)C(=O)Nc1ccc(Cl)cc12 [Compound 29]
half-life [8]: 56.4 min | Liver Microsomes CLint, Human [8]: Low | EC50 (P. falciparum NF54 [9]): 0.2 nM | Liver Microsomes CLint, Mouse [10]: Low | half-life [10]: 49.1 min

CC1(C)N=C(N)N=C(N)N1c1ccc(Cl)cc1 [Cycloguanil]
Ki [11]: 454 ± 38 nM | Ki [12]: 1.51 ± 0.1 nM

CCc1nc(N)nc(N)c1-c1ccc(Cl)cc1 [Pyrimethamine]
Ki [11]: 385 ± 163 nM | Ki [12]: 0.59 ± 0.05 nM
